Measured values reported in article PMC12858467, “In vitro toxicokinetics and metabolic profiling of methoxycathinones and methylthiocathinones using human liver systems and hyphenated mass spectrometry” (Archives of Toxicology, 2025).
Read-outs that look alike come from different tables or passages of the source.

Experiments:
Assay type in all cases: in vitro ADME
[1] = In vitro plasma protein binding (ultrafiltration, Centrifree); details: human, pooled human blood plasma, 30 min, 37 °C, ultrafiltration
Procedure: PPB was investigated according to a previous study with minor modifications (Kroesen et al. [2025]). Fresh and pooled human blood plasma (450 µL) was spiked with 50 µL of a 5 µM methanolic solution of 4MeO-NE-BP, 4MeO-αP-BP, 4MeO-αP-VP, 4MeS-NE-BP, 4MeS-αP-BP, or 4MeS-αMor-PrP. The mixture was incubated for 30 min at 37 °C and with gentle shaking at 200 rpm. […] The Centrifree devices were centrifuged for 35 min at 1600 × g to obtain 100 µL of the ultrafiltrate (UF). […] Experiments were performed in quadruplicate. Fraction unbound (fu) and PPB were determined by comparing the area ratios of the compound and trimipramine-d3 as an internal standard in the UF and GA using the following equations:1 fu=peak area ratiocompoundUF/ISUF/peak area ratiocompoundGA/ISGA 2 PPB[\%]=1-fu∗100.

[2] = test system: pooled human liver S9 fraction (pHLS9) and HepaRG cells; experiment: In vitro metabolism by pHLS9 and HepaRG cells (LC-HRMS/MS metabolite identification); details: 25 µM substrate
CYP2D6 = target: T1, CYP2D6 (Homo sapiens, UniProt P10635); experiment: Monooxygenases activity screening, CYP2D6; parameters: key to one-step metabolite detected in CYP2D6 incubation: +, detected; -, not detected; details: 30 min, 37 °C
T1 construct: purchased Discovery Life Sciences (Huntsville, LA, USA); host or cells: baculovirus-infected insect cells (microsomes, Supersomes)
T1 sequence (P10635 whole entry): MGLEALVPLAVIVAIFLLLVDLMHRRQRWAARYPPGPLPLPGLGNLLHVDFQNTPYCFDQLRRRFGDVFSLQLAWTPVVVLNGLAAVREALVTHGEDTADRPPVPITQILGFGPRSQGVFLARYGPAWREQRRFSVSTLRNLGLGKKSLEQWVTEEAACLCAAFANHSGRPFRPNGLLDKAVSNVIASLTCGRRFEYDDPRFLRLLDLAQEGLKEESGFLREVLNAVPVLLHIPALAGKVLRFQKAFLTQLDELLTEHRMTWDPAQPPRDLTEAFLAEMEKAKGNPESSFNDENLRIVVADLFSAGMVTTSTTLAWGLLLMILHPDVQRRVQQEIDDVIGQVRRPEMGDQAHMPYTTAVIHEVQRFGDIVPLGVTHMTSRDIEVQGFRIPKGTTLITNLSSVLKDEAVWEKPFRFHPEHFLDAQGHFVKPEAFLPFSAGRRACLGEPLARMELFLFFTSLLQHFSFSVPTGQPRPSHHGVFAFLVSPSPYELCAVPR
Procedure: (§1) For incubations with CYP2A6 or CYP2C9, phosphate buffer was replaced with 90 mM Tris buffer, according to the manufacturer’s guideline. […] All incubations were done in duplicate and concentrations were fixed. Verapamil (25 µM) was incubated as a positive control.

[3] = target: T2, flavin-containing monooxygenase 3 (FMO3) (Homo sapiens, UniProt P31513); experiment: Monooxygenases activity screening, FMO3; parameters: key: +, detected; -, not detected; details: 30 min, 37 °C
T2 construct: purchased Discovery Life Sciences (Huntsville, LA, USA); host or cells: baculovirus-infected insect cells (microsomes, Supersomes)
T2 sequence (P31513 1-532): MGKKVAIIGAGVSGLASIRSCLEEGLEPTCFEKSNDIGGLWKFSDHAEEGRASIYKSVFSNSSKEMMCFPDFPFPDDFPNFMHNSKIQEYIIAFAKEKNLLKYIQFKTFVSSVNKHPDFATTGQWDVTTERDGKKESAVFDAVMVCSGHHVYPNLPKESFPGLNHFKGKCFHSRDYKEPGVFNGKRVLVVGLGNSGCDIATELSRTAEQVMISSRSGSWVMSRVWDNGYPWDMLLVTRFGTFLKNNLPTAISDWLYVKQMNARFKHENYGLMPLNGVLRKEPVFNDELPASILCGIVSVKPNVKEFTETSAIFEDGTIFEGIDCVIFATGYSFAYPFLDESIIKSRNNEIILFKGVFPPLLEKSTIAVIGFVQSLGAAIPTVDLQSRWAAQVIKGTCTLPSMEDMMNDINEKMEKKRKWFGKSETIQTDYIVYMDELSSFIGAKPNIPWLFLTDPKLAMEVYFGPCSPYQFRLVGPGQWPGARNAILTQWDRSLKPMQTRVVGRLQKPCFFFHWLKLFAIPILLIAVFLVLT
Procedure: as §1

CYP2C9 = target: T3, CYP2C9 (Homo sapiens, UniProt P11712); experiment: Monooxygenases activity screening, CYP2C9; parameters: key: +, detected; -, not detected; details: 30 min, 37 °C
T3 construct: purchased Discovery Life Sciences (Huntsville, LA, USA); host or cells: baculovirus-infected insect cells (microsomes, Supersomes)
T3 sequence (P11712 whole entry): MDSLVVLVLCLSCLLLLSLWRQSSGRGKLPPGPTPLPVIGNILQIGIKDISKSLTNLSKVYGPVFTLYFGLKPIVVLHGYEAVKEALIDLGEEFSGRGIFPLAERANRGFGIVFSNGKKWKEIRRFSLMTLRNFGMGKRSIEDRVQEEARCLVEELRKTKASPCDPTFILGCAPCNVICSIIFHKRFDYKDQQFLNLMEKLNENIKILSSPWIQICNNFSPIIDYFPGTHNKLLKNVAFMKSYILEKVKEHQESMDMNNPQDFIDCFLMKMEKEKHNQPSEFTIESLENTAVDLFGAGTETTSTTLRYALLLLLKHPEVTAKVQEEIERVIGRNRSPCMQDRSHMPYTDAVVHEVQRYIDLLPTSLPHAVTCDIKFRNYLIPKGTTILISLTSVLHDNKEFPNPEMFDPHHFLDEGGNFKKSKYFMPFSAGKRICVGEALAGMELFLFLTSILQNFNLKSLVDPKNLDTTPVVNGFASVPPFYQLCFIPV
Procedure: as §1

CYP2E1 = target: T4, CYP2E1 (Homo sapiens, UniProt P05181); experiment: Monooxygenases activity screening, CYP2E1; parameters: key: +, detected; -, not detected; details: 30 min, 37 °C
T4 construct: purchased Discovery Life Sciences (Huntsville, LA, USA); host or cells: baculovirus-infected insect cells (microsomes, Supersomes)
T4 sequence (P05181 whole entry): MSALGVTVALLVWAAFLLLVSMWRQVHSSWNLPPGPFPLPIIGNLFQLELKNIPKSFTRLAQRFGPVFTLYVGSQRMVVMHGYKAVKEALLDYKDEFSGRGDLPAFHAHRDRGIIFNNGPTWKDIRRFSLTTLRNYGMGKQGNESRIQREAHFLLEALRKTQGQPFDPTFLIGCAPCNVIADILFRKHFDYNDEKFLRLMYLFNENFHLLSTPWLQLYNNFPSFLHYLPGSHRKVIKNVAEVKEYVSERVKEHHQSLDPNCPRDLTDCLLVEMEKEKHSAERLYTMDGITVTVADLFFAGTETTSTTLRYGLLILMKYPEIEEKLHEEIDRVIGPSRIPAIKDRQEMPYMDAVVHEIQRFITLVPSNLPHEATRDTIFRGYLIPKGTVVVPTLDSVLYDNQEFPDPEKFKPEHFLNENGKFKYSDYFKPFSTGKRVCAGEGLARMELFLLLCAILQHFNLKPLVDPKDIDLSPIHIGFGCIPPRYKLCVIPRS
Procedure: as §1

CYP2A6 = target: T5, CYP2A6 (Homo sapiens, UniProt P11509); experiment: Monooxygenases activity screening, CYP2A6; parameters: key: +, detected; -, not detected; details: 30 min, 37 °C
T5 construct: purchased Discovery Life Sciences (Huntsville, LA, USA); host or cells: baculovirus-infected insect cells (microsomes, Supersomes)
T5 sequence (P11509 1-494): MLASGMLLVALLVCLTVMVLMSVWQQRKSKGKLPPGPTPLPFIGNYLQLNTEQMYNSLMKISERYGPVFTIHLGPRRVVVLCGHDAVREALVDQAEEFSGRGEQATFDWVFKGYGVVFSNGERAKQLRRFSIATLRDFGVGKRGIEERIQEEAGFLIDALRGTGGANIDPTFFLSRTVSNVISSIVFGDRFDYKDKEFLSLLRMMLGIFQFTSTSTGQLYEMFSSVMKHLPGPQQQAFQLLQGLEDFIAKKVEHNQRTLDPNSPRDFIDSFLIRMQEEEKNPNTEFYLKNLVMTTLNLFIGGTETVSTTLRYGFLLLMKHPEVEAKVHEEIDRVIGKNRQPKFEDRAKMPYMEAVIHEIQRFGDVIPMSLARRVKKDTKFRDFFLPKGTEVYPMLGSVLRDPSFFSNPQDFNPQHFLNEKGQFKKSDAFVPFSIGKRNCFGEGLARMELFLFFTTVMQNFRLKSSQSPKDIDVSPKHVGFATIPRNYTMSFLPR
Procedure: as §1

CYP2C8 = target: T6, CYP2C8 (Homo sapiens, UniProt P10632); experiment: Monooxygenases activity screening, CYP2C8; parameters: key: +, detected; -, not detected; details: 30 min, 37 °C
T6 construct: purchased Discovery Life Sciences (Huntsville, LA, USA); host or cells: baculovirus-infected insect cells (microsomes, Supersomes)
T6 sequence (P10632 1-490): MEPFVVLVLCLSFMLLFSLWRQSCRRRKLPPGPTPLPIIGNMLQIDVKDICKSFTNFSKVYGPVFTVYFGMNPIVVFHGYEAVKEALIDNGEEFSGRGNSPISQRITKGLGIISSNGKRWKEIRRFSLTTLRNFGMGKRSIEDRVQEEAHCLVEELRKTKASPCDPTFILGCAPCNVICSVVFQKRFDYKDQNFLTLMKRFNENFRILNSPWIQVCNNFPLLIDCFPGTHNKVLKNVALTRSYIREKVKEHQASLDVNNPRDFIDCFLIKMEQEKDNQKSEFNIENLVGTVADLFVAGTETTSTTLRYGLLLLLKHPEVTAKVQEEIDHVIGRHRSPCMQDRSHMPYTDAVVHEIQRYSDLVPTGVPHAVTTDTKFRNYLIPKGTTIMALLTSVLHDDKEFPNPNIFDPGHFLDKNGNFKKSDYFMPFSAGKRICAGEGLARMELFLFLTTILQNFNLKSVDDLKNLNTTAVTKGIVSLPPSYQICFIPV
Procedure: as §1

CYP2B6 = target: T7, CYP2B6 (Homo sapiens, UniProt P20813); experiment: Monooxygenases activity screening, CYP2B6; parameters: key: +, detected; -, not detected; details: 30 min, 37 °C
T7 construct: purchased Discovery Life Sciences (Huntsville, LA, USA); host or cells: baculovirus-infected insect cells (microsomes, Supersomes)
T7 sequence (P20813 1-491): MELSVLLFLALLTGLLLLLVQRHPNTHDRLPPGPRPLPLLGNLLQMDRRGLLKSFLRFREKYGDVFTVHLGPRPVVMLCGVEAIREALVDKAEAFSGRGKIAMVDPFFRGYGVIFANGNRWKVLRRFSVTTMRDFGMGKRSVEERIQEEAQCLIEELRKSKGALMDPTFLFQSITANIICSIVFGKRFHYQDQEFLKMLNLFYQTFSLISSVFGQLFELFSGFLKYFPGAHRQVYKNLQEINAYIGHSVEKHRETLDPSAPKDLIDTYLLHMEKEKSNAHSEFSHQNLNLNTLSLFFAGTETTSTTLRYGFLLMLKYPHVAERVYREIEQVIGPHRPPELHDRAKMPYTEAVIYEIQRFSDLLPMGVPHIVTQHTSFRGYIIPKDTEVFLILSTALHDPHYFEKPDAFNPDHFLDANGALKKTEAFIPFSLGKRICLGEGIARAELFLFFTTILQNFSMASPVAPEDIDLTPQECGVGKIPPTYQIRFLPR
Procedure: as §1

CYP2C19 = target: T8, CYP2C19 (Homo sapiens, UniProt P33261); experiment: Monooxygenases activity screening, CYP2C19; parameters: key: +, detected; -, not detected; details: 30 min, 37 °C
T8 construct: purchased Discovery Life Sciences (Huntsville, LA, USA); host or cells: baculovirus-infected insect cells (microsomes, Supersomes)
T8 sequence (P33261 whole entry): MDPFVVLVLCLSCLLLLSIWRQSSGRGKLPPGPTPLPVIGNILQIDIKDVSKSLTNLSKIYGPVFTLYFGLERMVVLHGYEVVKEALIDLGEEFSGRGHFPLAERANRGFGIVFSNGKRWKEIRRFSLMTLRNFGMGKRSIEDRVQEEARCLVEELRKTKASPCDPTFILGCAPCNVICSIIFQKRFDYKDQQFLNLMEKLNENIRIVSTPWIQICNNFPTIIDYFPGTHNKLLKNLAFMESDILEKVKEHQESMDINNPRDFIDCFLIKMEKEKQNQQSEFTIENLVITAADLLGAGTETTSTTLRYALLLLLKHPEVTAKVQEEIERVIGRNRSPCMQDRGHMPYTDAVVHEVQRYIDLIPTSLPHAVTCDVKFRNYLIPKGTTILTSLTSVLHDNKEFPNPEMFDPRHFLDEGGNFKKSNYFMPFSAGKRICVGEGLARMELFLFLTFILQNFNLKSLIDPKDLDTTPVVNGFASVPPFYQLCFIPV
Procedure: as §1

CYP1A2 = target: T9, CYP1A2 (Homo sapiens, UniProt P05177); experiment: Monooxygenases activity screening, CYP1A2; parameters: key: +, detected; -, not detected; details: 30 min, 37 °C
T9 construct: purchased Discovery Life Sciences (Huntsville, LA, USA); host or cells: baculovirus-infected insect cells (microsomes, Supersomes)
T9 sequence (P05177 1-516): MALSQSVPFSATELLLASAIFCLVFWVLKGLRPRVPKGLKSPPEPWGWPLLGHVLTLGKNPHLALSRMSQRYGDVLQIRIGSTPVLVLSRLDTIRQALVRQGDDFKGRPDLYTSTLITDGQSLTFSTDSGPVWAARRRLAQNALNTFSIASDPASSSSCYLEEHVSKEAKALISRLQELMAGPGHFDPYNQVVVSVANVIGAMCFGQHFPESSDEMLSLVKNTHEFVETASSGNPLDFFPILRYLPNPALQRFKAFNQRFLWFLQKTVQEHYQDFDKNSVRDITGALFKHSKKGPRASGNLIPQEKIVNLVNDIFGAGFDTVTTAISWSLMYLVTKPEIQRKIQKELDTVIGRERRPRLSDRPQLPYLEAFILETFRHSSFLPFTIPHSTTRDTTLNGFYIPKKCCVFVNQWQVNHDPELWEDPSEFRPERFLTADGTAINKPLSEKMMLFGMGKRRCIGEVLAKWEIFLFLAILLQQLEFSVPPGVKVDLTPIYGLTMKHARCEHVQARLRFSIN
Procedure: as §1

CYP3A4 = target: T10, CYP3A4 (Homo sapiens, UniProt P08684); experiment: Monooxygenases activity screening, CYP3A4; parameters: key: +, detected; -, not detected; details: 30 min, 37 °C
T10 construct: purchased Discovery Life Sciences (Huntsville, LA, USA); host or cells: baculovirus-infected insect cells (microsomes, Supersomes)
T10 sequence (P08684 whole entry): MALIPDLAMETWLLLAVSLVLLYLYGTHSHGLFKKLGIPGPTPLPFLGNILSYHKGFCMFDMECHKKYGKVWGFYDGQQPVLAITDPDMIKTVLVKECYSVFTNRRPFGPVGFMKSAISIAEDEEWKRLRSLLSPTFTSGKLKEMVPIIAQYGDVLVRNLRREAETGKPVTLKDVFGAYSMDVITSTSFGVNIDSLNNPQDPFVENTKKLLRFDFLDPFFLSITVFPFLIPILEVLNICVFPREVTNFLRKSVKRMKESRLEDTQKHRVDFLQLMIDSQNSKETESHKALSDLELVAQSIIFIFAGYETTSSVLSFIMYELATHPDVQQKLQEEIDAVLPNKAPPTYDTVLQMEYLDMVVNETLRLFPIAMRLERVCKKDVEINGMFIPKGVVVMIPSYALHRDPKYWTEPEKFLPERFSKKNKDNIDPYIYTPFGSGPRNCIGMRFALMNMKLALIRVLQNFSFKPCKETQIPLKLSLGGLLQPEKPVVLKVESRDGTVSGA
Procedure: as §1

CYP3A5 = target: T11, CYP3A5 (Homo sapiens, UniProt P20815); experiment: Monooxygenases activity screening, CYP3A5; parameters: key: +, detected; -, not detected; details: 30 min, 37 °C
T11 construct: purchased Discovery Life Sciences (Huntsville, LA, USA); host or cells: baculovirus-infected insect cells (microsomes, Supersomes)
T11 sequence (P20815 whole entry): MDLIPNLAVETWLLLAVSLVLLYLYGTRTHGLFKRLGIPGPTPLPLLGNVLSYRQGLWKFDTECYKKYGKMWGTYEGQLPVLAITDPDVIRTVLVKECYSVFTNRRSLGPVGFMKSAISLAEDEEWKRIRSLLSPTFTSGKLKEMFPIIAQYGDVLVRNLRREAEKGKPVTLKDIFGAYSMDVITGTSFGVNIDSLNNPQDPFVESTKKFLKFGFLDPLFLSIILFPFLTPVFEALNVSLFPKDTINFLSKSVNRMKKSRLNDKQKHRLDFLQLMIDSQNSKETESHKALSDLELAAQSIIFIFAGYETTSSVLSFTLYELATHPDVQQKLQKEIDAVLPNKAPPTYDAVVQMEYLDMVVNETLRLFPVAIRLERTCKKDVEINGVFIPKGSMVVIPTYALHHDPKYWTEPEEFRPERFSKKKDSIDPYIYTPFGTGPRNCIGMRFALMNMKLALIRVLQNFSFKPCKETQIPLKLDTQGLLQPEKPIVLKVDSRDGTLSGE
Procedure: as §1

[4] = substrate 4MeS-αP-BP 25 µM, Table S3.5
[5] = substrate 4MeS-αMor-PrP 25 µM, Table S3.6

Row | Compound | one-step metabolite detected in FMO3 incubation [3, 5] | one-step metabolite detected in CYP2C9 incubation (CYP2C9; [5]) | one-step metabolite detected in CYP2E1 incubation (CYP2E1; [5]) | one-step metabolite detected in CYP2A6 incubation (CYP2A6; [5]) | one-step metabolite detected in CYP2C8 incubation (CYP2C8; [5]) | one-step metabolite detected in CYP2D6 incubation (CYP2D6; [5]) | one-step metabolite detected in CYP2B6 incubation (CYP2B6; [5]) | one-step metabolite detected in CYP2C19 incubation (CYP2C19; [5]) | one-step metabolite detected in CYP1A2 incubation (CYP1A2; [5]) | one-step metabolite detected in CYP3A4 incubation (CYP3A4; [5]) | one-step metabolite detected in CYP3A5 incubation (CYP3A5; [5]) | other results
1 | CCC(C(=O)c1ccc(SC)cc1)N1CCCC1 (stereo not drawn) [Compound 4MeS-αP-BP, 4’-methylthio-α-pyrrolidinobutyrophenone] |  |  |  |  |  |  |  |  |  |  |  | fraction unbound at 30 min, 0.5 µM ([1]; read-out: PPB, % (converted)): 0.16; fraction unbound at 30 min, 0.5 µM ([1]; read-out: fu (unbound fraction)): 0.16; metabolic reactions (metabolite IDs) identified [2]: S-demethylation (MT2.1), hydroxylation (MT2.2), N-oxidation (MT2.3), lactam formation (MT2.4), N,N-bis-dealkylation (MT2.5), dihydroxylation (MT2.6), S-demethylation + hydroxylation (MT2.7), and N-oxidation + hydroxylation (MT2.8); number of metabolites tentatively identified [2]: 8; S-demethylation, only mediated by one CYP isoform (CYP2D6; 25 µM): CYP2D6
2 | CCC(C(=O)c1ccc(S)cc1)N1CCCC1 (centres unmarked) [MT2.1] |  |  |  |  |  |  |  |  |  |  |  | one-step metabolite detected in FMO3 incubation [3, 4]: -; one-step metabolite detected in CYP2C9 incubation (CYP2C9; [4]): -; one-step metabolite detected in CYP2E1 incubation (CYP2E1; [4]): -; one-step metabolite detected in CYP2A6 incubation (CYP2A6; [4]): -; one-step metabolite detected in CYP2C8 incubation (CYP2C8; [4]): -; one-step metabolite detected in CYP2D6 incubation (CYP2D6; [4]): +; one-step metabolite detected in CYP2B6 incubation (CYP2B6; [4]): -; one-step metabolite detected in CYP2C19 incubation (CYP2C19; [4]): -; one-step metabolite detected in CYP1A2 incubation (CYP1A2; [4]): -; one-step metabolite detected in CYP3A4 incubation (CYP3A4; [4]): -; one-step metabolite detected in CYP3A5 incubation (CYP3A5; [4]): -
3 | CC(C(=O)c1ccc(S)cc1)N1CCOCC1 (centres unmarked) [MT3.1] | - | - | - | - | + | + | + | + | + | + | + | 
4 | CSc1ccc(C(=O)C(C)[N+]2([O-])CCOCC2)cc1 (centres unmarked) [MT3.3] | + | - | - | + | - | - | - | - | - | - | - | 
